The results in this text go back to patent publication US11319305B2, “Pyrimidine sulfamide derivative and preparation method and medical application thereof” (SHIJIAZHUANG SAGACITY NEW DRUG DEVELOPMENT CO., LTD., priority 2017, dated 2022).

Usually IC50 stands for the point on the concentration scale where inhibition reaches its midpoint.

Each structure is given as a SMILES string.

One assay concerns the target T1, human ETB receptor (Homo sapiens, UniProt P24530).
T1 construct: host or cells: CHO cells
T1 sequence (P24530 27-442): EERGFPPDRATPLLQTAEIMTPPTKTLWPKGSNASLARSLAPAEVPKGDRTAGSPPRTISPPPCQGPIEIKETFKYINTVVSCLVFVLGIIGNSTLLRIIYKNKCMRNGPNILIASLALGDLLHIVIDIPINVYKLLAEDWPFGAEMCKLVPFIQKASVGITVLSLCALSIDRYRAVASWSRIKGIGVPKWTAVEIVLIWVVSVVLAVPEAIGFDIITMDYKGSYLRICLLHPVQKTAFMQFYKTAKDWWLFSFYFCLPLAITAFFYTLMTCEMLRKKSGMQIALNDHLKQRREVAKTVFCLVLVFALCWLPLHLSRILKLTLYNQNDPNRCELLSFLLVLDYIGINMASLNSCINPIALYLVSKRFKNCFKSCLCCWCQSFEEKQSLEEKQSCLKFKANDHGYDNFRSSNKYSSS
Kind of assay: In vitro antagonistic effect against human ETB receptor, Ca2+ signal in transfected CHO cells. Type of assay: cell-based. The settings on record: response to 0.3 nM endothelin-1. The method, then: Antagonist activity of the compound against human ETB receptors expressed in transfected CHO cells was evaluated by measuring the effect of the compound on the changes in the cytoplasmic Ca^2+ ion signal induced by human ETB receptor agonists. The functional activity of the ETB receptor antagonistic effect was tested in Eurofins-Cerep SA according to current standard procedures.
1. Cells were suspended in DMEM buffer (Invitrogen) and then distributed in 384-well plate (100 μL/well) at a density of 3×10^4 cells/well;
2. Probenecid in HBSS buffer (Invitrogen) supplemented with 20 mM Hepes (Invitrogen) (pH 7.4) was mixed with fluorescent probe (Fluo4 NW, Invitrogen), the mixture was added to each wells, then balanced with cells at 37° C. for 60 minutes, and then balanced with cells at 22° C. for 15 minutes;
3. The test plate was placed in a microplate reader (CellLux, PerkinElmer), a DMSO solution or HBSS buffer with an appropriate concentration of the test compound and the positive control was added, and 0.3 nM endothelin-1 or HBSS buffer (base control) was added after 5 minutes, and then the change in fluorescence intensity proportional to the concentration of Ca^2+ ions of […] was measured;
4. Results were shown as the percent inhibition of control response to 0.3 nM endothelin-1;
5. Standard positive control was BQ-788, several concentrations were tested in each experiments. The data was analyzed using Prism to generate a concentration-response curve, and IC50 values of the compounds were calculated.

A further assay addresses T2, CYP2D6 (Homo sapiens, UniProt P10635).
T2 construct: Mixed human liver microsomes (HLM) were purchased from Corning Inc; tissue Corning Inc; host or cells: pooled human liver microsomes
Kind of assay: Human liver microsomal cytochrome P450 isozyme inhibition assay, CYP2D6. The note with it: human liver microsomes. Type of assay: in vitro ADME. The method, then: (§1) Experimental Embodiment 4: Human Liver Microsomal Cytochrome P450 Isozyme Inhibition Assay The purpose of the assay was to evaluate the inhibitory activity of the samples against human liver microsomal cytochrome P450 isozyme (CYP1A2, CYP2C9, CYP2C19, CYP2D6 and CYP3A4) using the 5-in-1 probe substrate of the CYP isozyme. Mixed human liver microsomes (HLM) were purchased from Corning Inc. (Steuben, N.Y., USA) and stored below −80° C. before use. The test compound working solution which has been diluted into serial concentrations was added to an incubation system containing human liver microsomes, probe substrates and circulating system cofactors, and a control containing solvent without the test compound was used as the enzyme activity control (100%). The concentration of the metabolite produced by the probe substrate in the sample was determined using a liquid chromatography-tandem mass spectrometry (LC-MS/MS) method. Nonlinear regression analysis was performed on the average percent activity versus concentration of subjects using SigmaPlot (V.11). The IC50 value was calculated by a three-parameter or four-parameter inverse-logarithmic equation.
(In general: Microsomes from liver hold many membrane-bound enzymes, among them those of drug oxidation.)

For assay [1], the target named is T3, bile salt transport pump (BSEP) (Homo sapiens, UniProt O95342).
T3 construct: purchased Solvo Biotechnology SB-BSEP-Hi5-VT; host or cells: Hi5 insect cells (read from the product name; own knowledge)
Kind of assay: Inhibition test on bile salt transfer pump (BSEP), taurocholic acid uptake in BSEP-Hi5-VT vesicles. Type of assay: in vitro ADME.
Protocol: Prepared with buffer A, 8.16 mM ATP and 4.08 μM taurocholic acid were contained in 12 mL buffer A.
Prepared with buffer A, 8.16 mM AMP, 4.08 μM taurocholic acid 12 mL buffer A were contained in buffer A.
A solution containing BSEP-Hi5-VT 5 μg/μL was prepared with buffer A.
The compound was diluted to 100 mM with DMSO; then serially diluted 3-fold for an 11-point dilution; the minimum concentration was 0.169 μM.
Positive reference Glyburide was diluted to 20 mM with DMSO; then serially diluted 2-fold for an 11-point dilution; the minimum concentration was 19.5
0.3 μL of a solution of the compound in DMSO or a diluted DMSO solution were transferred into corresponding wells of the compound plate using ECHO, respectively.
14.7 μL of ATP buffer was added to the compound and the corresponding wells of zero percent effect (ZPE), respectively.
14.7 μL of AMP buffer was added to the corresponding wells of 100% effect (HPE), respectively.
The plate was shaked for 10 minutes at 25° C.
15 μL of BSEP-H15-VT Vesicle solution was added to all wells, respectively, and the plate was shaked for another 40 minutes at 25° C.
6.5 μL 0.5 M ethylenediaminetetraacetic acid (EDTA) solution was added to all wells immediately, followed by addition of 65 μL of buffer B, and the whole reaction was completed.
7.95 μL of liquid was transferred to the filter plate from the compound plate at the end of the reaction using an instrument.
After placing the liquid receiving plate under the filter plate, the liquid was removed using a centrifuge and the receiving plate liquid was discarded.
9.90 μL of buffer B was added to the filter plate. After placing the liquid receiving plate under the filter plate, the liquid was removed using a centrifuge, and the receiving plate liquid was discarded, and filter plate was washed for three times in total.
The filter plate was dried overnight.
On the next day, 80 μL of methanol/water (80/20, volume ratio) solution was added to the filter plate.
The plate was shaked for 15 minutes after the filter plate was attached to the membrane.
A new liquid receiving plate was placed under the filter plate, and the filter plate was centrifuged for 5 minutes, and all liquids in the filter plate were filtrated into the receiving plate.
15 μL of internal standard solution was added to each wells in the liquid receiving plate, and the plate was sealed with a membrane.
The content of taurocholic acid in the receiving plate was detected using LC/MS/MS.
Several concentrations were tested in each experiments. The data were analyzed using Prism to generate a concentration-response curve, and IC50 values of the compounds were calculated.

Another assay has as its target T4, CYP2C9 (Homo sapiens, UniProt P11712).
T4 construct: Mixed human liver microsomes (HLM) were purchased from Corning Inc; tissue Corning Inc; host or cells: pooled human liver microsomes
In words: Human liver microsomal cytochrome P450 isozyme inhibition assay, CYP2C9. The class given is in vitro ADME. The settings on record: human liver microsomes. The method, then: as §1

The next assay has as its target T5, CYP2C19 (Homo sapiens, UniProt P33261).
T5 construct: Mixed human liver microsomes (HLM) were purchased from Corning Inc; tissue Corning Inc; host or cells: pooled human liver microsomes
Kind of assay: Human liver microsomal cytochrome P450 isozyme inhibition assay, CYP2C19. Type of assay: in vitro ADME. The settings on record: human liver microsomes. As for the experimental part:
as §1

T3 sequence (O95342 whole entry): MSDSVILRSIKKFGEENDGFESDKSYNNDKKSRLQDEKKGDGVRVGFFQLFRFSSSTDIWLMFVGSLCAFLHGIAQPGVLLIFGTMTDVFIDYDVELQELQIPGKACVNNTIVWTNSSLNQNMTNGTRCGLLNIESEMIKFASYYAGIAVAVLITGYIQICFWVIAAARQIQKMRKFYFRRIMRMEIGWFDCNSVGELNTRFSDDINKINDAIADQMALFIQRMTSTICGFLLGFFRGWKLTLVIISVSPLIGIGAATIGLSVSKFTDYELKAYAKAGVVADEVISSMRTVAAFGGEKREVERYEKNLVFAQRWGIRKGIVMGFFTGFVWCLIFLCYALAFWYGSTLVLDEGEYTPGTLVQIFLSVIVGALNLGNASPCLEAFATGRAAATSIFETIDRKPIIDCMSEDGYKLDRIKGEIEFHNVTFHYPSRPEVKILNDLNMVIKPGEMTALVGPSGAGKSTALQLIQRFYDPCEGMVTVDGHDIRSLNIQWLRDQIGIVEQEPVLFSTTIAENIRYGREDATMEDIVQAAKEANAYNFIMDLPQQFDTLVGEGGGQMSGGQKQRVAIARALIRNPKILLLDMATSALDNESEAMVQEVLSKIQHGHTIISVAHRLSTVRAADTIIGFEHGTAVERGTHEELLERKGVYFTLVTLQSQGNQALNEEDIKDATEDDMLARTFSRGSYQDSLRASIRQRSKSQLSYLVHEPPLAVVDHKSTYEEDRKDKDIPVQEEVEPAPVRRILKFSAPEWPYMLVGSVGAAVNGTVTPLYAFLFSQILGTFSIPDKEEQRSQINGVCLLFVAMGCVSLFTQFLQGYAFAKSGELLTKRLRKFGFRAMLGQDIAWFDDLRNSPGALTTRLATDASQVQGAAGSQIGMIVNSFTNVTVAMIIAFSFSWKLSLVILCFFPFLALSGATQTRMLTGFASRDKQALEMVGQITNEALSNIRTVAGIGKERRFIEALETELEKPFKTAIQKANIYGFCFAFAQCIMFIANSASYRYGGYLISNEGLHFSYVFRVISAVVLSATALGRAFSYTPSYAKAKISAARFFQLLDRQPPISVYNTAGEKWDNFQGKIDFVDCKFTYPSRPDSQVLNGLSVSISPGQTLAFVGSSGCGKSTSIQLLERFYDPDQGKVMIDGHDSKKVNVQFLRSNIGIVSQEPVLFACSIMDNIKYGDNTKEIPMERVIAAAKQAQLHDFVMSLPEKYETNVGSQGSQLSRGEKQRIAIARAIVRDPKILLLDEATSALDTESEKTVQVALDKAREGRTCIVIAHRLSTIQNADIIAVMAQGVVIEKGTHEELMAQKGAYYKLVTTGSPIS
T4 sequence (P11712 whole entry): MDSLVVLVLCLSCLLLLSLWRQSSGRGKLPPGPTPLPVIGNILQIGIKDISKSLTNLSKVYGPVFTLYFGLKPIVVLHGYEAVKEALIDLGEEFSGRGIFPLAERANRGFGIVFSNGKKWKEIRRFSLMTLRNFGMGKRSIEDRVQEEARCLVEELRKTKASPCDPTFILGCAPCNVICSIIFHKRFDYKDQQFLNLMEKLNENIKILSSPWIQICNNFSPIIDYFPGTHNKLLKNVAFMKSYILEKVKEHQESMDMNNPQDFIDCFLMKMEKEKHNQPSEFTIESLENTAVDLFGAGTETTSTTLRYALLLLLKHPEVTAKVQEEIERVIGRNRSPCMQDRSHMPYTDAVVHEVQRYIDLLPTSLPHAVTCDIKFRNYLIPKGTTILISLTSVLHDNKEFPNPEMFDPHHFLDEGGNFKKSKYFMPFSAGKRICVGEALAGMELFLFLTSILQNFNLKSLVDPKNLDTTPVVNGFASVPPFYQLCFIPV
T2 sequence (P10635 whole entry): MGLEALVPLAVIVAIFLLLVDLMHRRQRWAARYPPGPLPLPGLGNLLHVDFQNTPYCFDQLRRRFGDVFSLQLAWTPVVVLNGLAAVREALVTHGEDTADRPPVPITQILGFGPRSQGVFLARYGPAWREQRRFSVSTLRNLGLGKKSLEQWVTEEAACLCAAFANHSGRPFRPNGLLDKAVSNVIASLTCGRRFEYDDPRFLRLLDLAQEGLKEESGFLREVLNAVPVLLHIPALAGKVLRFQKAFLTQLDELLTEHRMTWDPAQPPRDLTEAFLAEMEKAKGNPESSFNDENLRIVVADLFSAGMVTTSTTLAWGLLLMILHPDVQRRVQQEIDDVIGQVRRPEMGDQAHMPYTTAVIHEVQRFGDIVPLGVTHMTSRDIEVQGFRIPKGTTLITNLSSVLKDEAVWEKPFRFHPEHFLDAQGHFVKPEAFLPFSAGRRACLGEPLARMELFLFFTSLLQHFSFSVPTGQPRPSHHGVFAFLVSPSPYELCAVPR
T5 sequence (P33261 whole entry): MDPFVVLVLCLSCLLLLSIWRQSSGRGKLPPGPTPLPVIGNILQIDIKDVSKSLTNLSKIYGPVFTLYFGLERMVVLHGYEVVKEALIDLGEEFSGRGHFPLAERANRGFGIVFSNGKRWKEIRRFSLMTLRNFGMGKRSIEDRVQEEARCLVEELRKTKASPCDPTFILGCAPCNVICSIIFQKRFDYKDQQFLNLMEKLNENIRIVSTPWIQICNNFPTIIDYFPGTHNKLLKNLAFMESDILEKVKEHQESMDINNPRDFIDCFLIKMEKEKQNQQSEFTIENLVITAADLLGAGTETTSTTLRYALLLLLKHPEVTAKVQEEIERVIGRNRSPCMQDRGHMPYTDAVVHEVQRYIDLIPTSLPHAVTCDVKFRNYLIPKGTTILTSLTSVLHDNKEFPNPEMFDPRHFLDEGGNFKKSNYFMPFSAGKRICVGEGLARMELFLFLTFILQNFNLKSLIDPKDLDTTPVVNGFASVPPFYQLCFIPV

`NS(=O)(=O)Nc1ncnc(OCCOc2ncc(Br)cn2)c1-c1ccc2c(c1)OCO2` [WX001]: the IC50 against human ETB receptor was 85 µM.
Take `COCCNS(=O)(=O)Nc1ncnc(OCCOc2ncc(Br)cn2)c1-c1ccc2c(c1)OCO2` [WX013]: the IC50 at CYP2D6 was > 50 µM; in assay [1] (substrate taurocholic acid, read-out: IC50, inhibitory effect on the bile salt transport pump (BSEP)), 43.8 µM; against human ETB receptor, 66 µM; on CYP2C9, > 50 µM; against CYP2C19, > 50 µM. Further, the “inhibitory effect on the bile salt transport pump (BSEP) (in words)” value in assay [1] is “extremely weak”.
